Test results: the SangsterLogP compilation

SMILES | logP
Cc1c(Cl)cccc1NCc1cnc2nc(N)nc(N)c2c1C | 2.04
Cc1c(CNc2ccccc2)cnc2nc(N)nc(N)c12 | 2.02
Cc1cc(NCc2cnc3nc(N)nc(N)c3c2C)ccc1Cl | 2.03
Cc1c(CNc2ccc(Cl)cc2)cnc2nc(N)nc(N)c12 | 2.03
CC(=O)c1cccc(NCc2cnc3nc(N)nc(N)c3c2C)c1 | 1.46
Cc1cc(C)cc(NCc2cnc3nc(N)nc(N)c3c2C)c1 | 2.11
Cc1c(CNc2ccc(Cl)c(Cl)c2)cnc2nc(N)nc(N)c12 | 2.06
CC(=O)c1ccc(NCc2cnc3nc(N)nc(N)c3c2C)cc1 | 1.45
Cc1ccc(C)c(NCc2cnc3nc(N)nc(N)c3c2C)c1 | 2.29
Cc1ccccc1NCc1cnc2nc(N)nc(N)c2c1C | 1.98
Cc1cccc(Cl)c1NCc1cnc2nc(N)nc(N)c2c1C | 2.05
Cc1c(CNc2c(Cl)cccc2Cl)cnc2nc(N)nc(N)c12 | 2
CCOc1ccccc1NCc1cnc2nc(N)nc(N)c2c1C | 2.07
Cc1c(CNc2cccc(Cl)c2Cl)cnc2nc(N)nc(N)c12 | 2.1
Cc1ccc(NCc2cnc3nc(N)nc(N)c3c2C)cc1Cl | 2.03
